In DBAASP:
Values after ≈ are worked out from the molar mass of the structure shown. One block for each compound: values may come before it.

Assays:
Test in all cases: ≥ marks a high value that may be exact or a test limit, other limits are often not marked, values filed in µg/mL are converted to µM
[1] = system: Bacillus subtilis ATCC 6633
Escherichia coli K-12 = system: Escherichia coli K-12
[2] = system: Micrococcus luteus NCIMB 13267
[3] = system: Pseudomonas aeruginosa ATCC 27853
[4] = system: Staphylococcus aureus ATCC 6538
[5] = system: Acinetobacter baumannii ATCC 17978
[6] = system: Candida albicans ATCC 90028
Candida krusei NCPF 3876 = system: Candida krusei NCPF 3876
[7] = system: Escherichia coli NCTC 12923
[8] = system: Klebsiella pneumoniae NCTC 13368
[9] = system: Pseudomonas aeruginosa PAO1
[10] = system: Staphylococcus aureus ATCC 9144
[11] = system: Staphylococcus aureus USA 300
Aspergillus fumigatus = system: Aspergillus fumigatus
Bibersteinia trehalosi = system: Bibersteinia trehalosi
[12] = system: Corynebacterium pseudotuberculosis ATCC 19410
Klebsiella pneumoniae = system: Klebsiella pneumoniae
[13] = system: Mannheimia haemolytica Serovar 1
[14] = system: Mannheimia haemolytica Serovar 2
[15] = system: Mannheimia haemolytica Serovar 6
Pasteurella multocida = system: Pasteurella multocida
[16] = system: Salmonella enterica subsp. arizonae
Staphylococcus aureus = system: Staphylococcus aureus
[17] = system: Enterococcus faecalis ATCC 19433
[18] = system: Enterococcus faecium ATCC 19434
[19] = system: Escherichia coli ATCC 25922
[20] = system: Klebsiella pneumoniae ATCC 13883
[21] = system: Proteus mirabilis CCUG 26767
[22] = system: Salmonella enterica subsp. enterica serovar Typhimurium LT2
[23] = system: Staphylococcus aureus ATCC 29213
[24] = system: Pseudomonas aeruginosa 21328
[25] = system: Pseudomonas aeruginosa 25349
[26] = system: Pseudomonas aeruginosa CICC 10419
[27] = system: Pseudomonas aeruginosa CICC 11411
[28] = system: Pseudomonas aeruginosa CICC 11421
[29] = system: Pseudomonas aeruginosa CICC 11431
[30] = system: Pseudomonas aeruginosa CICC 21625
[31] = system: Pseudomonas aeruginosa CICC 21630
[32] = system: Escherichia coli KpC+001812446
[33] = system: Klebsiella pneumoniae KpC+001825971
[34] = system: Pseudomonas aeruginosa PA214

MIC [1]: ≥ 200 µM
MIC (Escherichia coli K-12): ≥ 200 µM
MIC [2]: ≥ 200 µM
MIC [3]: > 200 µM
MIC [4]: > 200 µM
Compound: CC(C)C[C@H](NC(=O)[C@H](CO)NC(=O)[C@H](CCC(=O)O)NC(=O)[C@H](CC(C)C)NC(=O)[C@H](CCC(N)=O)NC(=O)[C@H](CCC(N)=O)NC(=O)[C@H](CCC(=O)O)NC(=O)[C@H](CC(C)C)NC(=O)[C@H](CCC(N)=O)NC(=O)[C@H](CO)NC(=O)[C@H](CC(C)C)NC(=O)[C@H](CCC(=O)O)NC(=O)[C@H](CCC(N)=O)NC(=O)[C@H](CCC(=O)O)NC(=O)[C@H](CC(C)C)NC(=O)[C@H](CO)NC(=O)[C@H](CCC(N)=O)NC(=O)[C@H](C)NC(=O)[C@H](CCC(=O)O)NC(=O)[C@H](CCC(N)=O)NC(=O)[C@H](CCC(=O)O)NC(=O)[C@H](Cc1ccccc1)NC(=O)[C@H](CCC(N)=O)NC(=O)[C@H](C)NC(=O)[C@H](Cc1ccccc1)NC(=O)[C@H](CCC(=O)O)NC(=O)CN)C(=O)O [GEFAQFEQEAQSLEQELSQLEQQLESL]

MIC [5]: ≥ 112 µM
MIC [6]: 15.4 µM (≈ 17.6 µg/mL)
MIC (Candida krusei NCPF 3876): ≥ 112 µM
MIC [7]: ≥ 112 µM
MIC [8]: ≥ 112 µM
MIC [9]: > 112 µM
MIC [10]: ≥ 112 µM
MIC [11]: ≥ 112 µM
Compound: CC[C@H](C)[C@H](N)C(=O)N[C@@H](CCCN=C(N)N)C(=O)NCC(=O)N[C@@H](Cc1ccc(O)cc1)C(=O)N[C@@H](CCCCN)C(=O)NCC(=O)NCC(=O)N[C@@H](Cc1ccc(O)cc1)C(=O)N[C@@H](CS)C(=O)N[C@@H](CCCCN)C(N)=O [IRGYKGGYCK]

MIC (Aspergillus fumigatus): 22.2 µM (≈ 40 µg/mL)
MIC (Bibersteinia trehalosi): 11.1 µM (≈ 20 µg/mL)
MIC [12]: 11.1 µM (≈ 20 µg/mL)
MIC (Klebsiella pneumoniae): > 11.1 µM
MIC (Pasteurella multocida): 8.33 µM (≈ 15 µg/mL)
MIC [9]: 2.78 µM (≈ 5 µg/mL)
MIC [16]: 11.1 µM (≈ 20 µg/mL)
MIC (Staphylococcus aureus): > 11.1 µM
Compound: CC[C@H](C)[C@H](N)C(=O)N[C@@H](CCCN=C(N)N)C(=O)N[C@@H](CCCN=C(N)N)C(=O)N[C@H](C(=O)N[C@H](C(=O)N[C@@H](CCCN=C(N)N)C(=O)N[C@@H](CCCCN)C(=O)N[C@H](C(=O)N[C@H](C(=O)N[C@@H](Cc1cnc[nH]1)C(=O)N[C@H](C(=O)N[C@H](C(=O)N[C@@H](CCCCN)C(=O)N[C@@H](CCCCN)C(=O)O)[C@@H](C)CC)[C@@H](C)CC)[C@@H](C)CC)[C@@H](C)CC)[C@@H](C)CC)[C@@H](C)CC [IRRIIRKIIHIIKK]
MIC [13]: 5.55 µM (≈ 10 µg/mL)
MIC [14]: 2.33 µM (≈ 4.2 µg/mL)
MIC [15]: 3.72 µM (≈ 6.7 µg/mL)

MIC [1]: ≥ 388 µM
MIC [17]: ≥ 388 µM
MIC [18]: ≥ 388 µM
MIC [19]: > 388 µM
MIC [20]: ≥ 388 µM
MIC [21]: ≥ 388 µM
MIC [3]: > 388 µM
MIC [22]: ≥ 388 µM
MIC [23]: > 388 µM
Compound: CC[C@H](C)[C@H](NC(=O)[C@H](CC(C)C)NC(=O)[C@@H]1CCCN1C(=O)[C@H](CC(C)C)NC(=O)[C@@H](N)Cc1ccccc1)C(=O)N[C@@H](CC(C)C)C(=O)N[C@@H](Cc1ccccc1)C(=O)N[C@@H](Cc1c[nH]c2ccccc12)C(=O)N[C@H](C(=O)N[C@H](C(=O)N[C@H](C(=O)N[C@@H](C)C(=O)N[C@@H](CC(C)C)C(N)=O)[C@@H](C)O)C(C)C)[C@@H](C)CC [FLPLILFWIVTAL]

MIC [19]: 31.2 µM (≈ 64 µg/mL)
MIC [24]: ≥ 125 µM
MIC [25]: 15.6 µM (≈ 32 µg/mL)
MIC [3]: 62.4 µM (≈ 128 µg/mL)
MIC [26]: ≥ 125 µM
MIC [27]: ≥ 125 µM
MIC [28]: ≥ 125 µM
MIC [29]: ≥ 125 µM
MIC [30]: ≥ 125 µM
MIC [31]: ≥ 125 µM
MIC [23]: 31.2 µM (≈ 64 µg/mL)
Compound: C[C@H](N)C(=O)N[C@@H](CCCN=C(N)N)C(=O)N[C@@H](CCCN=C(N)N)C(=O)N[C@@H](C)C(=O)N[C@@H](CCCN=C(N)N)C(=O)N[C@@H](CCCN=C(N)N)C(=O)N[C@@H](CCCN=C(N)N)C(=O)N[C@@H](Cc1c[nH]c2ccccc12)C(=O)N[C@@H](CCCN=C(N)N)C(=O)N[C@@H](CCCN=C(N)N)C(=O)N[C@@H](CCCN=C(N)N)C(=O)N[C@@H](C)C(=O)N[C@@H](CCCN=C(N)N)C(=O)N[C@@H](CCCN=C(N)N)C(=O)N[C@@H](C)C(N)=O [ARRARRRWRRRARRA]

MIC [19]: 4 µM (≈ 8.48 µg/mL)
MIC [32]: 4 µM (≈ 8.48 µg/mL)
MIC [20]: 30 µM (≈ 63.6 µg/mL)
MIC [33]: 8 µM (≈ 17 µg/mL)
Compound: CC[C@H](C)[C@H](NC(=O)[C@H](CCCCN)NC(=O)[C@H](CCCCN)NC(=O)[C@H](Cc1ccccc1)NC(=O)[C@H](CC(C)C)NC(=O)[C@H](CCCCN)NC(=O)[C@H](Cc1c[nH]c2ccccc12)NC(=O)[C@H](CCCCN)NC(=O)[C@H](Cc1cnc[nH]1)NC(=O)[C@@H](NC(=O)[C@@H](N)C(C)C)[C@@H](C)CC)C(=O)NCC(=O)N[C@@H](C)C(=O)N[C@H](C(=O)N[C@@H](CC(C)C)C(=O)N[C@@H](CCCCN)C(=O)N[C@H](C(=O)N[C@@H](CC(C)C)C(=O)O)C(C)C)C(C)C [VIHKWKLFKKIGAVLKVL]

MIC (Escherichia coli K-12): 12.5 µM (≈ 25 µg/mL)
MIC [34]: ≥ 50 µM
MIC [9]: > 50 µM
Compound: CC(C)C[C@H](NC(=O)[C@H](Cc1ccccc1)NC(=O)[C@H](C)NC(=O)[C@H](C)NC(=O)[C@H](CCCCN)NC(=O)[C@H](CCCCN)NC(=O)[C@H](CCCCN)NC(=O)[C@@H](N)CCCCN)C(=O)N[C@@H](CCCCN)C(=O)N[C@@H](CC(C)C)C(=O)N[C@@H](Cc1c[nH]c2ccccc12)C(=O)N[C@@H](CC(C)C)C(=O)N[C@@H](CCCCN)C(=O)N[C@@H](CC(C)C)C(=O)N[C@@H](Cc1ccccc1)C(=O)N[C@@H](C)C(=O)N[C@@H](C)C(N)=O [KKKKAAFLKLWLKLFAA]
